According to the supplement of paper PMC10307832:

compound: O=C1NC(=O)[C@@H](c2cn3c4c(cccc24)CCC3)[C@@H]1c1c[nH]c2ccccc12 [Tivantinib] + CS(=O)(=O)CCNCc1ccc(-c2ccc3ncnc(Nc4ccc(OCc5cccc(F)c5)c(Cl)c4)c3c2)o1 [Lapatinib] (partner 2 µM); assay: relative viability (nuclei count vs DMSO), 5 days (fraction); higher = more cells survive; settings: first compound 0.01 µM
Summary of the method: (§1)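 Five library-drug doses in √10 steps were combined with a fixed anchor-drug dose, or a single drug was given alone, by pin tool to lung cancer cell lines in 1536-well plates the day after seeding. Nuclei were stained and counted after 5 days. Relative viability is the nuclei count in treated wells over that in vehicle wells, taken as the median of duplicate plates.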

Row | Cell Line | relative viability
1 | NCI-H2087 | 1.1
2 | Calu-6 | 1.08
3 | HCC-44 | 1.02
4 | NCI-H1703 | 1.3
5 | NCI-H647 | 1.09
6 | LK-2 | 0.955
7 | NCI-H2126 | 0.799
8 | SK-MES-1 | 0.441
9 | HARA | 0.888
10 | COR-L23 | 1.12
11 | COR-L 105 | 0.412
12 | LC-2-ad | 1.03
13 | LU99A | 0.987
14 | NCI-H2170 | 0.157
15 | NCI-H3122 | 1.08
16 | IA-LM | 0.871
17 | HCC-78 | 0.477
18 | A549 | 1

Row | Cell Line | relative viability
19 | LXF-289 | 0.925
20 | BEN | 0.623
21 | HCC-15 | 0.815
22 | HCC-827 | 0.213
23 | LOU-NH91 | 0.83
24 | NCI-H2023 | 0.884
25 | A-427 | 1
26 | NCI-H460 | 0.905
27 | NCI-H727 | 0.824
28 | NCI-H1755 | 1.07
29 | NCI-H520 | 0.893
30 | NCI-H2405 | 1.11
31 | SW 1573 | 1.16
32 | NCI-H1395 | 1.23
33 | 201T | 1.08
34 | NCI-H1975 | 0.943
35 | HOP-62 | 1.15
36 | NCI-H1299 | 0.967

same assay, conditions: first compound 0.03162 µM

Row | Cell Line | relative viability
37 | NCI-H2087 | 1.16
38 | Calu-6 | 1.02
39 | HCC-44 | 1.04
40 | NCI-H1703 | 0.94
41 | NCI-H647 | 0.86
42 | NCI-H2126 | 0.737
43 | SK-MES-1 | 0.426
44 | HARA | 0.651
45 | COR-L23 | 0.975
46 | COR-L 105 | 0.359
47 | LC-2-ad | 0.929
48 | LU99A | 1.14
49 | NCI-H2170 | 0.252
50 | NCI-H3122 | 0.94
51 | IA-LM | 0.882
52 | HCC-78 | 0.786
53 | A549 | 1.02

Row | Cell Line | relative viability
54 | LXF-289 | 0.861
55 | BEN | 0.617
56 | HCC-15 | 0.846
57 | HCC-827 | 0.211
58 | LOU-NH91 | 0.702
59 | NCI-H2023 | 0.735
60 | A-427 | 1.12
61 | NCI-H460 | 0.922
62 | NCI-H727 | 0.689
63 | NCI-H1755 | 1.02
64 | NCI-H520 | 0.822
65 | NCI-H2405 | 1.13
66 | SW 1573 | 0.97
67 | NCI-H1395 | 1.18
68 | 201T | 1.01
69 | NCI-H1975 | 0.863
70 | NCI-H1299 | 0.952

same assay, conditions: first compound 0.1 µM

Row | Cell Line | relative viability
71 | NCI-H2087 | 0.862
72 | Calu-6 | 1.02
73 | HCC-44 | 0.998
74 | NCI-H1703 | 1.06
75 | NCI-H647 | 0.86
76 | LK-2 | 0.841
77 | NCI-H2126 | 0.77
78 | SK-MES-1 | 0.387
79 | HARA | 0.636
80 | COR-L23 | 0.894
81 | COR-L 105 | 0.29
82 | LC-2-ad | 0.928
83 | LU99A | 0.889
84 | NCI-H2170 | 0.277
85 | NCI-H3122 | 0.973
86 | IA-LM | 0.669
87 | HCC-78 | 0.647
88 | A549 | 0.911

Row | Cell Line | relative viability
89 | LXF-289 | 0.858
90 | BEN | 0.591
91 | HCC-15 | 0.873
92 | HCC-827 | 0.176
93 | LOU-NH91 | 0.78
94 | NCI-H2023 | 0.703
95 | A-427 | 0.989
96 | NCI-H460 | 0.889
97 | NCI-H727 | 0.802
98 | NCI-H1755 | 0.983
99 | NCI-H520 | 0.638
100 | NCI-H2405 | 1.06
101 | SW 1573 | 0.928
102 | NCI-H1395 | 0.981
103 | 201T | 1.04
104 | NCI-H1975 | 0.795
105 | HOP-62 | 0.956
106 | NCI-H1299 | 0.988

same assay, conditions: first compound 0.3162 µM

Row | Cell Line | relative viability
107 | NCI-H2087 | 1.13
108 | Calu-6 | 0.965
109 | HCC-44 | 1
110 | NCI-H1703 | 1.06
111 | NCI-H647 | 1.07
112 | LK-2 | 0.872
113 | NCI-H2126 | 0.799
114 | SK-MES-1 | 0.417
115 | HARA | 0.82
116 | COR-L23 | 0.922
117 | COR-L 105 | 0.359
118 | LC-2-ad | 1.06
119 | LU99A | 0.905
120 | NCI-H3122 | 1.01
121 | IA-LM | 0.771
122 | HCC-78 | 0.456
123 | A549 | 0.935

Row | Cell Line | relative viability
124 | LXF-289 | 0.968
125 | BEN | 0.691
126 | HCC-15 | 0.829
127 | HCC-827 | 0.165
128 | LOU-NH91 | 0.72
129 | NCI-H2023 | 0.577
130 | A-427 | 1.12
131 | NCI-H460 | 0.99
132 | NCI-H1755 | 1.15
133 | NCI-H520 | 0.795
134 | NCI-H2405 | 1.08
135 | SW 1573 | 1.07
136 | NCI-H1395 | 0.992
137 | 201T | 1.14
138 | NCI-H1975 | 1.1
139 | HOP-62 | 1.16
140 | NCI-H1299 | 0.924

compound: CC1(COc2ccc3c(c2)ncn3-c2ccc3cccc(N4CCC(N)CC4)c3n2)COC1 [Crenolanib] + CS(=O)(=O)N1CCN(Cc2cc3nc(-c4cccc5[nH]ncc45)nc(N4CCOCC4)c3s2)CC1 [Pictilisib] (partner 1 µM); assay: as above; settings: first compound 0.01 µM
Summary of the method: as §1

Row | Cell Line | relative viability
141 | NCI-H2087 | 0.804
142 | Calu-6 | 1.04
143 | HCC-44 | 0.672
144 | NCI-H1703 | 0.237
145 | NCI-H647 | 0.448
146 | LK-2 | 0.586
147 | NCI-H2126 | 0.504
148 | SK-MES-1 | 0.337
149 | HARA | 0.327
150 | COR-L23 | 0.777
151 | COR-L 105 | 0.455
152 | LC-2-ad | 0.5
153 | LU99A | 0.37
154 | NCI-H2170 | 0.376
155 | NCI-H3122 | 0.549
156 | IA-LM | 0.331
157 | HCC-78 | 0.24
158 | A549 | 0.608
159 | LXF-289 | 0.761
160 | BEN | 0.664
